Laboratory results taken from article PMC5465209 (Scientific Reports, 2017).

How the values were obtained:
secretion of insulin = details: cited from earlier work
Excerpt: An important mechanism whereby calcineurin promotes the activation of T cells and the induction of cytokine-related genes is largely attributed to a family of transcriptional regulators that are referred to as NFAT. The immunosuppressants cyclosporine A and FK506, which are used clinically to prevent transplant rejection, inhibit the activity of calcineurin phosphatase on all its protein substrates, including NFAT[1], [2].

βTC6 cells = experiment: Insulin secretion in βTC6 cells (mouse insulin ELISA); format: cell-based; details: FK506 0.01, 0.1 and 1 μM for 97 h, p < 0.05 for 0.01 μM, p < 0.01 for 0.1 and 1 μM, dose-dependent
Procedure: (§1) After 48, 96, or 144 hours, fresh medium was added; the samples taken to investigate the release of insulin were taken 1 hour later and assayed with a mouse insulin ELISA kit (Shibayagi, Shibukawa, Gunma, Japan).

[1] = system: isolated islets from BALB/c mice; experiment: Insulin secretion in isolated islets (mouse insulin ELISA); format: cell-based; details: FK506 0.01, 0.1 and 1 μM for 97 h, p < 0.05 for 0.01 μM, p < 0.01 for 0.1 and 1 μM, dose-dependent
Procedure: as §1

[2] = system: IL-2 protein in Jurkat cells; experiment: Inhibition of the production of IL-2 (ELISA of supernatant); format: cell-based, human; details: 100 nM FK506, then PMA and ionomycin 12 h
Procedure: Jurkat cells (1 × 10^5) were treated with medium containing peptides or FK506, then incubated with the same amount of medium containing 200 nM PMA (Sigma-Aldrich) and 4 μM ionomycin for an additional 12 h. IL-2 protein was detected in the supernatant of cells using an ELISA kit according to the manufacturer’s instructions (eBioscience, San Diego, CA, USA).

[3] = system: GFP-NFAT-1 in HEK293 cells; experiment: Inhibition of GFP-NFAT-1 nuclear translocation; format: cell-based; details: 1 μM FK506 for 2 h, then 500 nM ionomycin 15 min; transfected HEK 293 cells; five independent experiments
Procedure: HEK293 cells (ATCC) were plated onto glass cover slips in 35-mm culture dishes. GFP-NFAT-1 plasmid[6] was transfected with Lipofectamine 2000 (ThermoFisher Scientific K.K., Yokohama, Japan). […] The nuclear fluorescence intensity was quantified using a Fluoview device (Olympus, Tokyo, Japan) and measured with AquaCosmos software (Hamamatsu Photonics). The fluorescent intensity of 10 cells was counted; five sets of experiments were conducted. Background fluorescent intensity was subtracted from all experiments.

Insulin secretion (βTC6 cells): significantly inhibited | Insulin secretion [1]: significantly inhibited
Compound: C=CC[C@@H]1/C=C(\C)C[C@H](C)C[C@H](OC)[C@H]2O[C@@](O)(C(=O)C(=O)N3CCCC[C@H]3C(=O)O[C@H](/C(C)=C/[C@@H]3CC[C@@H](O)[C@H](OC)C3)[C@H](C)[C@@H](O)CC1=O)[C@H](C)C[C@@H]2OC [FK506]
Secretion of insulin (secretion of insulin): dose-dependent decrease | Production of IL-2 [2]: completely inhibited | Ionomycin-induced GFP-NFAT-1 nuclear translocation [3]: strong inhibition
